We go through 1 compound from patent publication US20020137779A1, “Use of L-2-oxothiazolidine-4-carboxylic acid for the treatment of type 2 diabetes” (Advanced Biochemicals Inc., priority 2001, published 2002).

For one experiment, the system named is pancreatic islet cells. The experiment can be described thus: insulin secretion of pancreatic islets isolated from mice, radioimmunoassay. The experiment is classed as cell-based, C57BL mouse. Here is the method: First step; After isolating pancreatic islets from a C57BL mouse according to Lacy and Kotianovsky(Diabetes, 16, 35-39, 1967), the islets were incubated for 60 min. at 37°C. with 250 […] of L-2-oxothiazolidine-4-carboxylic acid alone or together with 2.8-25 mM of glucose, and insulin from the supernatant was measured by radioimmunoassay,
The isolation of pancreatic islets from a C57BL mouse(weight; 20 g, Samtako, Daejeon, Korea) was performed according to the method of Lacy and Kotianovsky et al.(Diabetes, 16; 35-39, 1967). The pancreas of ether-anesthetized mouse was distended by infusion with Hank's balanced salt solution(HBSS, GIBCO, USA) containing 1 mg/ml of collagenase (Sigma, USA) via common bile duct and isolated. The isolated pancreas was digested for 20 min at 37 C while stirring homogeneously. After removing acinar cells by washing with HBSS, pancreatic islets of similar size were collected under dissecting microscope. 2.8-25 mM of glucose(Sigma, USA) alone or together with 250 ^μM-[…] of L-2-oxothiazolidine-4-carboxylic acid were administered to the isolated 10 pancreatic islets in 100 ^μl of Krebs Ringer bicarbonate(Sigma, USA) buffer solution containing 10 mM of Hepes, the islets were incubated for 60 min. at 37 °C., and insulin in the supernatant, from which the pancreatic β-islet cells was removed, was measured. […]

The test system of experiment [1] is type 2 diabetes mice (C57BL/KsJ-db/db Jcl). The experiment can be described thus: blood insulin concentration after oral administration for four weeks (Example 5). The experiment is classed as in vivo, mouse. Particulars: 80 mg/kg per day for four weeks. Here is the method: Fifth step Determining the ability of insulin secretion after oral administration of L-2-oxothiazolidine-4-carboxylic acid for 4 weeks to a 7 week old type 2 diabetes mouse, and
Seven week old type 2 diabetes mice were maintained as in EXAMPLE 2. 0.2 ml of PBS (pH 7.4) was given to a control group(4 mice) twice a day for four weeks, and 80 mg/kg of L-2-oxothiazolidine-4-carboxylic acid dissolved in 0.2 ml of PBS of which pH was adjusted to 7.4 with 3 N NaOH(Junsei, Japan), was orally administered to an experimental group(4 mice). Five hours after the drug was finally administered, 1 g/kg of glucose was intraperitoneally injected. Tails were cut, blood samples were taken from the tails at 60 min. time intervals until 180 min., the samples were left at room temperature for three hours, sera were collected, and the insulin concentration was measured by radioimmunoassay.

For experiment [2] the test system is unchanged. In words: serum insulin levels after glucose intake, single oral administration (Example 3). The experiment is classed as in vivo, mouse. Particulars: for concentration of insulin / increase of insulin concentration vs control group: 30 min after glucose intake. Here is the method:
Third step; Determining the abilities of lowering blood glucose level and increasing insulin secretion ability following glucose loading, by administering a single dose of 8-80 mg/kg of L-2-oxothiazolidine-4-carboxylic acid to a type 2 diabetes mouse, Fourth step; Examining the effect of long term administration of L-2-oxothiazolidine-4-carboxylic acid on lowering blood glucose levels,
Under the same breeding condition as in EXAMPLE 2, no feed but water was given to 7 week old type 2 diabetes mice (C57BL/KsJ-db/db Jel, Clea, Japan) for 13 hours. 0.2 ml of PBS was orally given to the control group(5 mice) using feeding needle, and 8-80 mg/kg of L-2-oxothiazolidine-4-carboxylic acid dissolved in 0.2 ml of PBS was orally administered to the experimental group(5 mice). After 5 hours of drug administration, 1 g/kg of glucose (Sigma, USA) was intraperitoneally injected and the mice were maintained for 30 to 120 minutes. The blood glucose levels of type 2 diabetes mice at various time points were measured by the glucose oxidase method using a glucose analyzer(One-touch Basic, Lifescan, USA), and serum insulin levels were determined using a radioimmunoassay, as described in EXAMPLE 2.

The test system is the same in experiment [3]. The experiment can be described thus: serum insulin after a single oral dose and glucose loading (Example 2). Particulars: for Conc. of insulin: glucose 1 g/kg i.p. after 5 hours, serum 30 minutes later. It is filed as in vivo, mouse. Here is the method: Second step; Determining optimum L-2-oxothiazolidine-4-carboxylic acid concentration which is appropriate for enhancing insulin secretion and lowering blood glucose levels in a type 2 diabetes mouse, by administering 0-400 mg/kg of L-2-oxothiazolidine-4-carboxylic acid orally,
The present example is to show an appropriate concentration of L-2-oxothiazolidine-4-carboxylic acid for the purpose of improving the ability of insulin secretion and lowering blood glucose levels, by varying the concentrations of L-2-oxothiazolidine-4-carboxylic acid in a single oral dose to type 2 diabetes mice.
The present inventors ascertained the effect of various concentrations of L-2-oxothiazolidine-4-carboxylic acid on lowering blood glucose level and insulin secretion. in which experiments enough sterilized-feed and water was given to 6 week old C57BL mice(Samtako, purchased from Clea, Japan) in the light condition of 12L: 12D for a week, bred the mice in the incubator of A.B.J Co.(Building 1 Chonbuk National University Medical School, Chonju, Korea) for a week, and no feed but water was given to the mice for 13 hours before insulin and glucose levels were measured.
0.2 ml of PBS (pH 7.4) was orally given to the control group(5 mice) using feeding needle, and 1.5-400 mg/kg of L-2-oxothiazolidine-4-carboxylic acid, dissolved in 0.2 ml of PBS and its pH was adjusted to 7.2 with 3 N NaOH(Junsei, Japan), was orally administered to experimental group(5 mice). After 5 hours of the drug administration, glucose(Sigma, USA) was injected intraperitoneally at the concentration of 1 g/kg, and incubated the mice for 30 minutes. Immediately after the mice were anesthetized with ether, the thoraces of the mice was incised to take blood, serum was isolated, and the insulin concentration of the mice-serum was measured by radioimmunoassay using rat insulin assay kit(Amersham Pharmacia Bio Co., USA).

As for `O=C1NC(C(=O)O)CS1` [OTC, L-2-oxothiazolidine-4-carboxylic acid], the “insulin secretion of pancreatic islet cells” value in the experiment on pancreatic islet cells (500 μM−2 mM OTC in the presence of 17.5 mM glucose, 60 min at 37°C) is recorded as “increased insulin secretion in a dose-dependent manner”. Also, the “glucose dependence of the stimulation of insulin secretion from pancreatic islets” value in the experiment with pancreatic islet cells (OTC 500 μM-2 mM) is given as “the presence of glucose is required for the stimulation of insulin secretion”. Besides, in experiment [1], the “duration of the effect on insulin concentration” value is reported as “about 120 min”. The insulin concentration in experiment [1] (120 min after glucose intake) was determined as 1285.04 ± 135.60 pmol/L; in experiment [1] (fasted state) it was 450 ± 43.50 pmol/L. Also, in experiment [1] (after 120 min), the “increase of insulin concentration compared to the control group” value is 4.93 times. The concentration of insulin in experiment [2] (40 mg/kg single oral dose) was 1,650±103 pmol/1; in experiment [2] (80 mg/kg single oral dose) it was 1,760±94 pmol/l. In addition, the “increase of insulin concentration vs control group” value is 26.5% in experiment [2] (40 mg/kg single oral dose) and 35.4% in experiment [2] (80 mg/kg single oral dose). In experiment [2] (40-80 mg/kg single oral dose), the “duration of the improvement of insulin secretion after the intake of glucose” value is reported as “about 120 min”. Also, the “insulin secretion ability compared to the control group” value is listed as “improvement of insulin secretion ability” in experiment [3] (3-20 mg/kg single oral dose, p<0.05); “more than 2 times” in experiment [3] (40-160 mg/kg single oral dose, p<0.001); “salient improvement of insulin secretion ability” in experiment [3] (over 400 mg/kg single oral dose, p<0.005). Also, the Conc. of insulin in experiment [3] (OTC 1.5 mg/kg single oral dose) was 878 pmol/L; in experiment [3] (OTC 3 mg/kg single oral dose) it was 908 pmol/L; in experiment [3] (OTC 10 mg/kg single oral dose), 1103 pmol/L; in experiment [3] (OTC 20 mg/kg single oral dose), 1,205 pmol/l; in experiment [3] (OTC 40 mg/kg single oral dose) it was 1,535 pmol/l; in experiment [3] (OTC 80 mg/kg single oral dose) it was 1,750 pmol/l. In addition, the Conc. of insulin in experiment [3] (OTC 160 mg/kg single oral dose) stood at 1684 pmol/L; in experiment [3] (OTC 400 mg/kg single oral dose) it was 1350 pmol/L.
